The record followed here is patent US10617656B2, “Methods of increasing the cytotoxicity of chemotherapeutic agents with multisubstrate inhibitors of histone, protein-Lys, polyamine acetylation, and polyamine metabolism” (Vanderbilt University, priority 2010, dated 2020).

Series [1] deals with H358 lung cancer cells. The series is classed as cell-based. The following applies: 3 days. As for the experimental part: Control cells were left untreated. […] Control cells were left untreated.
Cells were given fresh inhibitor on the first, second, and third days of treatment and viability was measured on the 4th day (i.e. 3 days post start of treatment). […]
(A) Structure of Spd-3a. (B) Western analysis of histone H3K9-acetylation and total histone H3, measured in control, untreated H358 lung cancer cells “C” or in H358 cells incubated 12 hours in the presence of 50 μM Spd-2a or Spd-3a. Each lane represents 60 μg cellular protein. (C) [3H]-thymidine incorporation (counts per minute) into DNA of H358 cells during a 6 hour pulse beginning at 42 hours post-start of treatment. Treatments were as follows (bars 1-6 left to right): (1) control: no treatment; (2) CPT alone: 5 nM 18 hours; (3) 3a alone: 50 μM; (4-6) 3a+CPT: CPT (5 nm, 18 hours)+3a at indicated dose. After 18 hours, CPT was removed and medium was replaced with fresh medium containing Spd-3a at the indicated dose. Each bar represents the average of triplicates. (D) 3-day 96-well viability assay of H358 cells grown in the presence of increasing amounts of Spd-2a or Spd-3a, with or without CPT (5 nM 18 hours). […] Each data point represents the average of three wells.
Date of exp: Jul. […] Date of exp: Sep.
Cells were plated in 96-well plates at 2000 cells per well and treated with the indicated doses of spd-3a. Cell viability was measured by the MTS assay 3 days later.
DLD-1 cells or H358 cells were plated in 96-well plates at 2000 cells per well and treated with the indicated doses of (A) spm-3 or (B) spm-2. (C) Cell viability was measured by the MTS assay 3 days later. Similar experiment using GT41 fibroblasts with spm2 or spm 3. Each assay point represents an average of duplicates. […]

The target in series [2] is T1, p300 catalytic domain (Homo sapiens, UniProt Q09472).
T1 construct: the catalytic domain of p300(965-1810); purchased Active Motif, Carlsbad, Calif
T1 sequence (Q09472 965-1810): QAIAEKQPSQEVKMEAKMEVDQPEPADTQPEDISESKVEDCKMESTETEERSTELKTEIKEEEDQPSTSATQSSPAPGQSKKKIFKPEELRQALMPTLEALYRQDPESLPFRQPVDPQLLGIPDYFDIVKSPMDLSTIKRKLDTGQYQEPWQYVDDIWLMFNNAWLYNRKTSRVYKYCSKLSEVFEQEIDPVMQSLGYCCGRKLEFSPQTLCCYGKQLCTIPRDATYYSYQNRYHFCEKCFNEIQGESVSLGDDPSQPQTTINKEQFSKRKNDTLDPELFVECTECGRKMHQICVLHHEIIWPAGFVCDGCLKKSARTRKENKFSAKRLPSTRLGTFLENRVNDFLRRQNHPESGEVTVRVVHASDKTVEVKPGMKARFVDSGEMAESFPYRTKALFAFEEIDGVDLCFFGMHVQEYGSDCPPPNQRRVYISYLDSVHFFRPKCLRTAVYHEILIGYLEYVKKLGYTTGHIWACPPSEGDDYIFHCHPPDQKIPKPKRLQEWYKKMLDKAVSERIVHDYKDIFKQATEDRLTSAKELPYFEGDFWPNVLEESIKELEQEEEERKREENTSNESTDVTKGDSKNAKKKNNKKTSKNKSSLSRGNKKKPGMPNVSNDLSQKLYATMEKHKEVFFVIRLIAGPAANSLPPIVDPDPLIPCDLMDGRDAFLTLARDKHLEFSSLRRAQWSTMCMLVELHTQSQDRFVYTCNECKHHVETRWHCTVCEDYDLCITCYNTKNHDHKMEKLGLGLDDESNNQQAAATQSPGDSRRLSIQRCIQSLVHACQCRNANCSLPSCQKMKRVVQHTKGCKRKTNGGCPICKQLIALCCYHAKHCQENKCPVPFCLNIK
The series is described as follows: 96-well fluorescent HAT assay kit (Active Motif), H3 peptide (5-23). In kind it is biochemical. As for the experimental part: (A) Structures of compound 1a (spermidine CoA), and the acetylated side chain of a lysine residue of a polypeptide chain. (B) Inhibition of p300 acetylating activity as a function of 1a concentration. The catalytic domain of recombinant p300 (1284-1660) was assayed under steady state conditions using an N-terminal acetylated histone H4 peptide substrate, Ac-H4(1-19)-NH2. Closed circles represent experimental data points; plain line represents theoretical profile based on data reduction software (Prism) using a one site inhibition model. (C) In vitro assay of p300 activity using a 96-well assay kit (ActivMotif) and an H3 peptide substrate (5-23), according to manufacturer's instructions. Bars represent average of duplicates. […]
Reactions were set up in duplicate following the protocol supplied by the kit. […] Activity is measured in fluorescence units. […]
Assays were performed using the fluorescent HAT assay kit (Active Motif, Carlsbad, Calif.), an H3 peptide as substrate (residues 5-23), the p300 catalytic domain as enzyme, and 50 μM inhibitor in duplicate, according to the manufacturer's instructions. […] The reaction product, CoASH, was detected spectrophotometrically by reaction with 5,5′-dithiobis-2-nitrobenzoic acid (DTNB). Assays were carried out at 30° C. for 30 minutes, conditions which had previously been determined in kinetic assays to sufficient to achieve steady state.

Molecules are shown by their SMILES.

Consider `CC(=O)NCCSCC(=O)NCCCNCCCCNCCCN` [spm-3], for which the “suppression of cancer cell growth and viability” value in series [1] (spm single agent) is “effective as single agents”. In addition, the “inhibition of p300 HAT activity” value in series [2] (FIG. 24, p300(965-1810), H3 peptide) was “HAT inhibitors”.
With `CC(C)(COP(=O)(O)OP(=O)(O)OC[C@H]1O[C@@H](n2cnc3c(N)ncnc32)[C@H](O)[C@@H]1OP(=O)(O)O)[C@@H](O)C(=O)NCCC(=O)NCCSCC(=O)NCCCNCCCCN` [1a, spermidine[N1]-CoA], the “suppression of 3 day cell viability” value in series [1] (human) is given as 60-70%. Besides, the inhibition at 50 µM in series [2] (50 μM inhibitor, Active Motif 96-well assay, FIG. 9, read-out: inhibition of incorporation of acetyl groups into the H4 peptide substrate relative to untreated wells) worked out at 88%.
